# Measured values published in patent US20220088024A1, “METHODS FOR TREATING CANCER USING TOZADENANT” (Biotie Therapies, Inc., priority 2018, published 2022).
# Like-named read-outs stand apart in the source and are kept apart here.
# Experiment: Example 11: plasma pharmacokinetics (toxicokinetics) of tozadenant in mice after twice daily oral administration
# Assay type: in vivo, Crl:CD1(ICR) mice
# Parameters: Cmax/D / AUC0-24/D: unit not given beside the values
# Conditions: for AUC(0-t) / AUC / Cmax / Tmax: Crl:CD1(ICR), mouse, plasma; for Cmax: read-out: Cmax
# Method: The plasma pharmacokinetics and exposure levels of tozadendant have been documented in mice after oral administration, the same route of administration as tozadenant was dosed in the oncology efficacy studies.
# The PK of tozadenant in mice was compared across a range of doses and dose frequencies. […]
# Groups of mice of the Crl:CD1(ICR) strain were dosed, as follows:
# The vehicle for the tozadenant in this mouse PK study was 1.6% (w/v) Avicel RC-591 (FMC), 0.2% (v/v) Tween 80, 0.18% (w/v) methylparaben and 0.02% (w/v) propylparaben in reverse osmosis water, pH 6.0±0.3. The 1.6% (w/v) Avicel RC-591 (FMC) was supplied by Biopolymer International, Brussels, Belgium. The 0.2% (v/v) Tween 80, 0.18% (w/v) methylparaben and 0.02% (w/v) propylparaben in reverse osmosis water, pH 6.0±0.3 was supplied by and Sigma-Aldrich Co Ltd, Poole, UK. This is the same formulation used for the mouse oncology model oral dosing.
# The test article was administered orally by gavage, as follows:
# Groups 1 to 4: Twice for one day (0 and 8 hours apart relative to initial dose)
# Group 5: Twice for one day (0 and 12 hours apart relative to initial dose)
# Blood samples for toxicokinetics (0.25 mL nominal) were taken from all toxicokinetic animals (subgroup 2), as follows:
# For animals dosed at 0, 8 or 12 hour intervals, sampling time with respect to dose was symmetrical in each animal, for example, if an animal was sampled 0.5 hours after the first dose, it was sampled 0.5 hours after the second dose. The second sample obtained from each animal was collected under terminal anaesthesia.
# Samples were taken from the orbital sinus (with the exception of Group 3 animals at the 10 hour bleed, which were taken by cardiac puncture) under isoflurane anaesthesia into K2EDTA. Samples were gently inverted to ensure mixing with anticoagulant, placed on a blood roller for at least one minute and then placed in a Kryorack until centrifugation.
# Centrifugation was carried out at approximately 4-8° C. within one hour of collection. The resultant plasma from all samples was separated, transferred to uniquely labelled clear polypropylene tubes and frozen immediately at approximately <−10 to −30° C. Samples were analyzed at Covance.
# Tozadenant was quantitated using protein precipitation followed by liquid chromatography mass spectrometry technique for quantification. This bioanalytical method was previously established and validated for tozadenant in mouse plasma.
# [1] = Group 1, Male, 100 mg/kg/day (50 mg/kg/dose), oral, dosing at 0, 8 hr
# [2] = Group 2, Male, 300 mg/kg/day (150 mg/kg/dose), oral, dosing at 0, 8 hr
# [3] = Group 3, Male, 1000 mg/kg/day (500 mg/kg/dose), oral, dosing at 0, 8 hr
# [4] = Group 4, 2000 mg/kg/day, dosing at 0, 8 hr
# [5] = Group 4, Female, 2000 mg/kg/day (1000 mg/kg/dose), oral, dosing at 0, 8 hr
# [6] = Group 4, Male, 2000 mg/kg/day (1000 mg/kg/dose), oral, dosing at 0, 8 hr
# [7] = Group 5, 2000 mg/kg/day, dosing at 0, 12 hr
# [8] = Group 5, Female, 2000 mg/kg/day (1000 mg/kg/dose), oral, dosing at 0, 12 hr
# [9] = Group 5, Male, 2000 mg/kg/day (1000 mg/kg/dose), oral, dosing at 0, 12 hr
smiles,measurement,setting,value
"COc1ccc(N2CCOCC2)c2sc(NC(=O)N3CCC(C)(O)CC3)nc12 [SYN-115, 4-hydroxy-4-methyl-piperidine-1-carboxylic acid (4-methoxy-7-morpholin-4-yl-benzothiazol-2-yl)-amide]",AUC0-24/D,[1],35.2
same,Cmax/D,[1],7.64
same,AUC0-24/D,[2],33.0
same,Cmax/D,[2],5.73
same,AUC0-24/D,[3],29.9
same,Cmax/D,[3],3.61
same,Female:Male Ratio AUC0-24,[4],2.70
same,Female:Male Ratio Cmax,[4],2.38
same,AUC0-24/D,[5],58.0
same,Cmax/D,[5],6.05
same,AUC0-24/D,[6],21.5
same,Cmax/D,[6],2.54
same,Female:Male Ratio AUC0-24,[7],2.02
same,Female:Male Ratio Cmax,[7],1.28
same,AUC0-24/D,[8],31.4
same,Cmax/D,[8],4.12
same,AUC0-24/D,[9],15.6
same,Cmax/D,[9],3.22
same,AUC(0-t),"female, po, 2000 mg/kg/day, Group 4, Female, 2000 mg/kg/day (1000 mg/kg/dose), oral, dosing at 0, 8 hr, read-out: AUC0-8",35400 ng·h/mL
same,AUC(0-t),"female, po, 2000 mg/kg/day, Group 4, Female, 2000 mg/kg/day (1000 mg/kg/dose), oral, dosing at 0, 8 hr, read-out: AUC0-24",116000 ng·h/mL
same,AUC,"female, po, 2000 mg/kg/day, Group 4, Female, 2000 mg/kg/day (1000 mg/kg/dose), oral, dosing at 0, 8 hr, read-out: AUC8-24",80600 ng·h/mL
same,Cmax,"female, po, 2000 mg/kg/day, Group 4, Female, 2000 mg/kg/day (1000 mg/kg/dose), oral, dosing at 0, 8 hr",12100 ng/mL
same,Tmax,"female, po, 2000 mg/kg/day, Group 4, Female, 2000 mg/kg/day (1000 mg/kg/dose), oral, dosing at 0, 8 hr, read-out: Tmax",14 h
same,AUC(0-t),"female, po, 2000 mg/kg/day, Group 5, Female, 2000 mg/kg/day (1000 mg/kg/dose), oral, dosing at 0, 12 hr, read-out: AUC0-12",35500 ng·h/mL
same,AUC(0-t),"female, po, 2000 mg/kg/day, Group 5, Female, 2000 mg/kg/day (1000 mg/kg/dose), oral, dosing at 0, 12 hr, read-out: AUC0-24",62700 ng·h/mL
same,AUC,"female, po, 2000 mg/kg/day, Group 5, Female, 2000 mg/kg/day (1000 mg/kg/dose), oral, dosing at 0, 12 hr, read-out: AUC12-24",27200 ng·h/mL
same,Cmax,"female, po, 2000 mg/kg/day, Group 5, Female, 2000 mg/kg/day (1000 mg/kg/dose), oral, dosing at 0, 12 hr",8240 ng/mL
same,Tmax,"female, po, 2000 mg/kg/day, Group 5, Female, 2000 mg/kg/day (1000 mg/kg/dose), oral, dosing at 0, 12 hr, read-out: Tmax",1.2 h
same,Tmax,"female, po, 2000 mg/kg/day, females, 0, 12 hour dosing, read-out: Tmax (following the first dose)",1.2 h
same,Tmax,"female, po, 2000 mg/kg/day, females, 2000 mg/kg/day, 0, 8 hours dosing, read-out: Tmax (after the second dose)",6 h
same,AUC,"male, oral, 100 mg/kg/day, mice, 100 mg/kg/day, read-out: Average AUC",3520 ng·h/mL
same,AUC(0-t),"male, po, 100 mg/kg/day, Group 1, Male, 100 mg/kg/day (50 mg/kg/dose), oral, dosing at 0, 8 hr, read-out: AUC0-8",1950 ng·h/mL
same,AUC(0-t),"male, po, 100 mg/kg/day, Group 1, Male, 100 mg/kg/day (50 mg/kg/dose), oral, dosing at 0, 8 hr, read-out: AUC0-24",3520 ng·h/mL
same,AUC,"male, po, 100 mg/kg/day, Group 1, Male, 100 mg/kg/day (50 mg/kg/dose), oral, dosing at 0, 8 hr, read-out: AUC8-24",1570 ng·h/mL
same,Cmax,"male, po, 100 mg/kg/day, Group 1, Male, 100 mg/kg/day (50 mg/kg/dose), oral, dosing at 0, 8 hr",764 ng/mL
